How the values were obtained:
[1] = target: T1, CCR1 (125I-MIP-1α binding to THP-1 cell membranes) (Homo sapiens, UniProt P32246); test: THP-1 cell membrane 125I-MIP-1α binding assay; settings: 0.1 to 0.2 nM 125I-MIP-1α, 60 min at room temperature, read-out: Inhibition of 125I-MIP-1α Binding to THP-1 Cell Membranes (Ki (nM))
T1 construct: Membranes were prepared from THP-1 cells (ATCC. #TIB202); host or cells: THP-1 cells (membrane preparation)
T1 sequence (P32246 1-355): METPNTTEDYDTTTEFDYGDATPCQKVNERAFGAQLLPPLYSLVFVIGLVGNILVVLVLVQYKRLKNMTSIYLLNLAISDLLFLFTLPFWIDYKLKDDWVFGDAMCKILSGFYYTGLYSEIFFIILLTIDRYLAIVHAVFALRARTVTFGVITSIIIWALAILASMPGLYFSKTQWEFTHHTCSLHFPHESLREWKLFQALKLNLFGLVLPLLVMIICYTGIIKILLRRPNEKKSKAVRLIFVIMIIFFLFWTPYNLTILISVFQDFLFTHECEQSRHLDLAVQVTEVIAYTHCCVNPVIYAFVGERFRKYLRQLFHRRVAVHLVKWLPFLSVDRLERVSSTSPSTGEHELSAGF
Excerpt: The activity of compounds of the present invention can be assessed using suitable assays, such as receptor binding assays or chemotaxis assays. For example, as described in the Examples, small molecule antagonists of […] binding have been identified utilizing THP-1 cells membranes. Specifically, a high through-put receptor binding assay, which monitors ^125I-MIP-1α binding to THP-1 cell membranes, was used to identify small molecule antagonists which block binding of MIP-1α. Compounds of the present invention can also be identified by virtue of their ability to inhibit the activation steps triggered by binding of a chemokine (e.g., CCL2 (MCP-1) CCL3 (MIP-1α), CCL4 (MIP-1β), CCL5 (RANTES), CCL7 (MCP-3), CCL8 (MCP-2), CCL13 (MCP-4), CCL14 (HCC-1), CCL15 (Lkn-1), CCL23 (MPIF-1)) to its receptor (CCR-1), such as chemotaxis, integrin activation and granule mediator release. They can also be identified by virtue of their ability to block chemokine (e.g., CCL2 (MCP-1) CCL3 (MIP-1α), CCL4 (MIP-1β), CCL5 (RANTES), CCL7 (MCP-3), CCL8 (MCP-2), CCL13 (MCP-4), CCL14 (HCC-1), CCL15 (Lkn-1), CCL23 (MPIF-1)) induced chemotaxis of, for example, HL-60 cells, T-cells, peripheral blood mononuclear cells or eosinophils.
Membranes were prepared from THP-1 cells (ATCC. #TIB202). Cells were harvested by centrifugation, washed twice with PBS (phosphate-buffered saline), and the cell pellets were frozen at −70 to −85° C. The frozen pellet was thawed in ice-cold lysis buffer consisting of 5 mM HEPES (N-2-hydroxyethylpiperazine-N′-2-ethane-sulfonic acid) pH 7.5, 2 mM EDTA (ethylenediaminetetraacetic acid), 5 μg/ml each aprotinin, leupeptin, and chymostatin (protease inhibitors), and 100 μg/ml PMSF (phenyl methane sulfonyl fluoride—also a protease inhibitor), at a concentration of 1 to 5×10^7 cells/ml. This procedure results in cell lysis. The suspension was mixed well to resuspend all of the frozen cell pellet. Nuclei and cell debris were removed by centrifugation of 400×g for 10 minutes at 4° C. The supernatant was transferred to a fresh tube and the membrane fragments were collected by centrifugation at 25,000×g for 30 minutes at 4° C. The supernatant was aspirated and the pellet was resuspended in freezing buffer consisting of 10 mM HEPES pH 7.5, 300 mM sucrose, 1 μg/ml each aprotinin, leupeptin, and chymostatin, and 10 μg/ml PMSF (approximately 0.1 ml per each 10^8 cells). All clumps were resolved using a minihomogenizer, and the total protein concentration was determined using a protein assay kit (Bio-Rad, Hercules, Calif., cat #500-0002). […]
Binding Assays utilized the membranes described above. […] The filters were rinsed with approximately 600 μl of binding buffer containing 0.5 M NaCl, dried, and the amount of bound radioactivity was determined by scintillation counting.

[2] = tested on: neutrophil recruitment in response to murine MIP-1α; test: In vivo efficacy model: neutrophil recruitment in response to MIP-1α (MPO activity in skin biopsies); parameters: species or system guinea pig; settings: for ED50 / oral bioavailability and efficacy in comparison to the Reference Example: oral; for ED50: 30 minutes prior to intradermal murine MIP-1α (100 pmol/site), read-out: Efficacy: Guinea Pig Neutrophil Recruitment (ED50 (mg/kg)); for oral bioavailability and efficacy in comparison to the Reference Example: guinea pig, comparison in words
Description: An animal model of neutrophil recruitment in response to MIP-1α was used to evaluate the biological/pharmacodynamic activity of the compounds. Compounds were administered to female Hartley guinea pigs orally (doses ranged from about 0.5 mg/kg to about 5.0 mg/kg) 30 minutes prior to intradermal injections of murine MIP-1α (100 pmol/site) or phosphate buffered saline (PBS). Skin punch biopsies were taken 5 hours later and processed for myeloperoxidase (MPO) measurements. MPO activity was used as an indicator for neutrophil recruitment to the injection site.

[3] = tested on: other G protein-coupled receptors and ion channels; test: Selectivity on other G protein-coupled receptors and ion channels; settings: assayed on other G protein-coupled receptors and ion channels; comparison in words
[4] = Cavia porcellus, Neutrophil, female Hartley guinea pigs, MPO at 5 hours

Row | SMILES | Ki [1] [nM] | ED50 [2, 4] [mg/kg] | inhibition at 2.5 mg/kg ([2]; Cavia porcellus, Neutrophil, at 2.5 mg/kg oral, female Hartley guinea pigs, intradermal murine MIP-1α, MPO at 5 hours, read-out: Efficacy: Guinea Pig Neutrophil Recruitment, % inhibition) [%] | oral bioavailability and efficacy in comparison to the Reference Example [2] | selectivity compared to structurally related compounds [3]
1 | CC1(C)CN(CCC=C2c3cc(C(=O)O)ccc3OCc3ncccc32)CC[C@@]1(O)c1ccc(Cl)cc1 [Example 2, (R)-5-{3-[4-(4-Chloro-phenyl)-4-hydroxy-3,3-dimethyl-piperidin-1-yl]-propylidene}-5,11-dihydro-10-oxa-1-aza-dibenzo[a,d]cycloheptene-7-carboxylic acid] | > 1000 |  |  |  | 
2 | O=C(O)c1ccc2c(c1)/C(=C/CCN1CCC(O)(c3ccc(Cl)cc3)CC1)c1cccnc1CO2 [Reference Example, reference compound] | 7.8 | 3.6 |  |  | 
3 | CC1(C)CN(CC/C=C2/c3cc(C(=O)O)ccc3OCc3ncccc32)CCC1(O)c1ccc(Cl)cc1 (racemic) [Example 3, racemic-5-{3-[4-(4-Chloro-phenyl)-4-hydroxy-3,3-dimethyl-piperidin-1-yl]-propylidene}-5,11-dihydro-10-oxa-1-aza-dibenzo[a,d]cycloheptene-7-carboxylic acid] | 3 |  | 99 | greater oral bioavailability and efficacy | greater selectivity
4 | CC1(C)CN(CCC=C2c3cc(C(=O)O)ccc3OCc3ncccc32)CC[C@]1(O)c1ccc(Cl)cc1 [Example 1, (S)-5-{3-[4-(4-Chloro-phenyl)-4-hydroxy-3,3-dimethyl-piperidin-1-yl]-propylidene}-5,11-dihydro-10-oxa-1-aza-dibenzo[a,d]cycloheptene-7-carboxylic acid] | 2.3 | 0.12 |  | greater oral bioavailability and efficacy | greater selectivity
